Source: ChEMBL document CHEMBL1144567, “Linker-modified triamine-linked acridine dimers: synthesis and cytotoxicity properties in vitro and in vivo” (Bioorg Med Chem, 2007)

What was measured:
[1] = Cytotoxicity against human HA22T cells after 72 hrs by MTT assay; type: cell-based
COLO 205 [2] = test: Cytotoxicity against human COLO205 cells after 72 hrs by MTT assay; type: cell-based; conditions: COLO 205, 72 h
MOLT-4 = test: Cytotoxicity against MOLT4 cells after 72 hrs by MTT assay; conditions: Homo sapiens, MOLT-4, 72 h
[3] = Cytotoxicity against SKBR3 cells after 72 hrs by MTT assay; type: cell-based; conditions: Homo sapiens, SK-BR-3, 72 h
Nucleic Acid = test: Binding affinity to Escherichia coli JM83 pUC19 DNA assessed as DNA intercalation assay; type: nucleic-acid assay
[4] = Toxicity in ICR mouse; type: organism-based; conditions: in vivo
COLO 205 [5] = test: Antitumor activity against human COLO205 cells implanted in SCID mouse at 10 mg/kg injected into tail vein; type: functional; conditions: read-out: TGI
COLO 205 [6] = test: Antitumor activity against human COLO205 cells implanted in SCID mouse at 22.5 mg/kg injected into tail vein; type: functional; conditions: read-out: TGI

| SC50 (Nucleic Acid) | SMILES | IC50 [1] | IC50 (COLO 205 [2]) | IC50 (MOLT-4) | IC50 [3] | MTD [4] | inhibition in vivo at 10 mg/kg (COLO 205 [5]) | inhibition in vivo at 22.5 mg/kg (COLO 205 [6]) |
| --- | --- | --- | --- | --- | --- | --- | --- | --- |
| – | COc1ccc2nc3cc(Cl)ccc3c(NCCCN(CCCNc3c4ccc(Cl)cc4nc4ccc(OC)cc34)CC(O)CO)c2c1 (stereo not drawn) | 1.72 µM | 0.13 µM | < 0.01 µM | 1.29 µM | – | – | – |
| – | COc1ccc2nc3cc(Cl)ccc3c(NCCCN(CCCNc3c4ccc(Cl)cc4nc4ccc(OC)cc34)Cc3ccc(Cl)cc3)c2c1 | 0.58 µM | 0.2 µM | < 0.01 µM | 0.53 µM | – | – | – |
| 2 µM | COc1cccc(CN(CCCNc2c3ccc(Cl)cc3nc3ccc(OC)cc23)CCCNc2c3ccc(Cl)cc3nc3ccc(OC)cc23)c1 | 0.42 µM | 0.35 µM | < 0.01 µM | 0.68 µM | – | – | – |
| – | COc1ccc2nc3cc(Cl)ccc3c(NCCCN(CCCNc3c4ccc(Cl)cc4nc4ccc(OC)cc34)CCc3ccccc3)c2c1 | 0.65 µM | 0.7 µM | < 0.01 µM | 0.68 µM | – | – | – |
| – | COc1ccc2nc3cc(Cl)ccc3c(NCCCCN(CCCNc3c4ccc(Cl)cc4nc4ccc(OC)cc34)Cc3ccco3)c2c1 | 4.73 µM | 0.37 µM | 0.06 µM | 5.07 µM | – | – | – |
| 10 µM | COc1cccc2c1C(=O)c1c(O)c3c(c(O)c1C2=O)C[C@@](O)(C(=O)CO)C[C@@H]3O[C@H]1C[C@H](N)[C@H](O)[C@H](C)O1 [DOXORUBICIN] | 0.31 µM | 0.26 µM | – | 0.29 µM | – | – | – |
| – | COc1ccc2nc3cc(Cl)ccc3c(NCCCN(CCCNc3c4ccc(Cl)cc4nc4ccc(OC)cc34)CC3OC(C)(C)OC3C3COC(C)(C)O3)c2c1 (stereo not drawn) | 4.68 µM | 2.19 µM | 0.06 µM | 4.73 µM | – | – | – |
| 2 µM | COc1ccc2nc3cc(Cl)ccc3c(NCCCN(CCCNc3c4ccc(Cl)cc4nc4ccc(OC)cc34)Cc3cccc(OC)c3OC)c2c1 | 0.62 µM | 0.64 µM | 0.01 µM | 0.79 µM | – | – | – |
| – | COc1ccc(CN(CCCCNc2c3ccc(Cl)cc3nc3ccc(OC)cc23)CCCNc2c3ccc(Cl)cc3nc3ccc(OC)cc23)cc1 | 5.45 µM | 0.39 µM | 0.71 µM | 0.86 µM | – | – | – |
| – | COc1ccc2nc3cc(Cl)ccc3c(NCCCN(CCCNc3c4ccc(Cl)cc4nc4ccc(OC)cc34)CC3COC(C)(C)O3)c2c1 (stereo not drawn) | 3.43 µM | 5.6 µM | < 0.01 µM | 6.61 µM | – | – | – |
| – | COc1ccc2nc3cc(Cl)ccc3c(NCCCCN(CCCNc3c4ccc(Cl)cc4nc4ccc(OC)cc34)Cc3ccoc3)c2c1 | 0.44 µM | 0.32 µM | 0.03 µM | 0.71 µM | – | – | – |
| – | COc1ccc2nc3cc(Cl)ccc3c(NCCCCN(CCCNc3c4ccc(Cl)cc4nc4ccc(OC)cc34)Cc3cccs3)c2c1 | 0.44 µM | 0.5 µM | 0.04 µM | 0.68 µM | – | – | – |
| 2 µM | COc1ccc2nc3cc(Cl)ccc3c(NCCCN(CCCNc3c4ccc(Cl)cc4nc4ccc(OC)cc34)Cc3sccc3C)c2c1 | 0.06 µM | 0.01 µM | < 0.01 µM | 0.07 µM | – | – | – |
| 2 µM | COc1ccc2nc3cc(Cl)ccc3c(NCCCN(CCCNc3c4ccc(Cl)cc4nc4ccc(OC)cc34)CC3CC3)c2c1 | 0.48 µM | 1.27 µM | < 0.01 µM | 0.82 µM | – | – | – |
| 4 µM | COc1ccc2nc3cc(Cl)ccc3c(NCCCCNCCCNc3c4ccc(Cl)cc4nc4ccc(OC)cc34)c2c1 | 0.33 µM | 0.13 µM | < 0.02 µM | 0.05 µM | – | – | – |
| – | CCCCCCN(CCCNc1c2ccc(Cl)cc2nc2ccc(OC)cc12)CCCNc1c2ccc(Cl)cc2nc2ccc(OC)cc12 | 6.95 µM | 0.89 µM | 0.09 µM | 6.14 µM | – | – | – |
| – | COc1ccc2nc3cc(Cl)ccc3c(NCCCN(CCCNc3c4ccc(Cl)cc4nc4ccc(OC)cc34)Cc3cc(Br)cs3)c2c1 | 0.84 µM | 0.72 µM | 0.06 µM | 0.7 µM | – | – | – |

| SC50 (Nucleic Acid) | SMILES | IC50 [1] | IC50 (COLO 205 [2]) | IC50 (MOLT-4) | IC50 [3] | MTD [4] | inhibition in vivo at 10 mg/kg (COLO 205 [5]) | inhibition in vivo at 22.5 mg/kg (COLO 205 [6]) |
| --- | --- | --- | --- | --- | --- | --- | --- | --- |
| – | COc1ccc2nc3cc(Cl)ccc3c(NCCCN(CCCNc3c4ccc(Cl)cc4nc4ccc(OC)cc34)Cc3ccsc3)c2c1 | 1.41 µM | 0.56 µM | 0.07 µM | 1.17 µM | – | – | – |
| – | CCN(CCCNc1c2ccc(Cl)cc2nc2ccc(OC)cc12)CCCNc1c2ccc(Cl)cc2nc2ccc(OC)cc12 | 5.33 µM | 0.09 µM | < 0.02 µM | 7.31 µM | 30 mg/kg | – | – |
| > 20 µM | COc1ccc2nc3cc(Cl)ccc3c(NCCCN(CCCNc3c4ccc(Cl)cc4nc4ccc(OC)cc34)Cc3ccc(Br)s3)c2c1 | 1.15 µM | 0.85 µM | < 0.01 µM | 5.8 µM | – | – | – |
| – | COc1cccc(CN(CCCCNc2c3ccc(Cl)cc3nc3ccc(OC)cc23)CCCNc2c3ccc(Cl)cc3nc3ccc(OC)cc23)c1 | 5.66 µM | 0.25 µM | 0.71 µM | 1.3 µM | – | – | – |
| – | COc1ccc2nc3cc(Cl)ccc3c(NCCCN(CCCNc3c4ccc(Cl)cc4nc4ccc(OC)cc34)Cc3cccnc3)c2c1 | 0.74 µM | 0.5 µM | < 0.01 µM | 0.64 µM | – | – | – |
| 2 µM | CCCN(CCCNc1c2ccc(Cl)cc2nc2ccc(OC)cc12)CCCNc1c2ccc(Cl)cc2nc2ccc(OC)cc12 | 5.98 µM | 1.46 µM | < 0.02 µM | 5.78 µM | – | – | – |
| > 20 µM | COc1ccc2nc3cc(Cl)ccc3c(NCCCN(CCCNc3c4ccc(Cl)cc4nc4ccc(OC)cc34)Cc3ccc(Br)o3)c2c1 | 1.11 µM | 0.41 µM | < 0.01 µM | 4.24 µM | – | – | – |
| 2 µM | COc1ccc2nc3cc(Cl)ccc3c(NCCCN(CCCNc3c4ccc(Cl)cc4nc4ccc(OC)cc34)Cc3ccccc3)c2c1 | 0.7 µM | 0.75 µM | 0.7 µM | 0.7 µM | – | – | – |
| 2 µM | COc1ccc2nc3cc(Cl)ccc3c(NCCCCN(CCCNc3c4ccc(Cl)cc4nc4ccc(OC)cc34)CC3CC3)c2c1 | 0.51 µM | 0.01 µM | < 0.01 µM | 0.72 µM | – | – | – |
| – | COc1ccc2nc3cc(Cl)ccc3c(NCCCN(CCCNc3c4ccc(Cl)cc4nc4ccc(OC)cc34)Cc3cc(OC)c(OC)c(OC)c3)c2c1 | 4.42 µM | 4.5 µM | 0.06 µM | 5.04 µM | – | – | – |
| – | CCc1ccc(CN(CCCNc2c3ccc(Cl)cc3nc3ccc(OC)cc23)CCCNc2c3ccc(Cl)cc3nc3ccc(OC)cc23)o1 | 3.32 µM | 2.56 µM | 0.1 µM | 5.25 µM | – | – | – |
| – | COc1ccc2nc3cc(Cl)ccc3c(NCCCCN(CCCNc3c4ccc(Cl)cc4nc4ccc(OC)cc34)Cc3ccsc3)c2c1 | 3.59 µM | 0.25 µM | < 0.01 µM | 0.99 µM | – | – | – |
| – | COc1ccc2nc3cc(Cl)ccc3c(NCCCN(CCCNc3c4ccc(Cl)cc4nc4ccc(OC)cc34)Cc3ccc(F)cc3F)c2c1 | 0.23 µM | 0.77 µM | < 0.01 µM | 0.78 µM | – | – | – |
| 2 µM | COc1ccc2nc3cc(Cl)ccc3c(NCCCN(CCCNc3c4ccc(Cl)cc4nc4ccc(OC)cc34)Cc3ccco3)c2c1 | 0.61 µM | 0.24 µM | < 0.01 µM | 0.84 µM | – | – | – |
| – | COc1ccc2nc3cc(Cl)ccc3c(NCCCN(C)CCCNc3c4ccc(Cl)cc4nc4ccc(OC)cc34)c2c1 | 0.62 µM | 0.16 µM | < 0.02 µM | 0.7 µM | 22.5 mg/kg | – | 2% |
| 2 µM | COc1ccc2nc3cc(Cl)ccc3c(NCCCN(CCCNc3c4ccc(Cl)cc4nc4ccc(OC)cc34)Cc3ccccc3OC)c2c1 | 0.93 µM | 3.61 µM | < 0.01 µM | 0.71 µM | – | – | – |

| SMILES | SC50 (Nucleic Acid) | IC50 [1] | IC50 (COLO 205 [2]) | IC50 (MOLT-4) | IC50 [3] | MTD [4] | inhibition in vivo at 10 mg/kg (COLO 205 [5]) | inhibition in vivo at 22.5 mg/kg (COLO 205 [6]) |
| --- | --- | --- | --- | --- | --- | --- | --- | --- |
| COc1ccc2nc3cc(Cl)ccc3c(NCCCNCCCNc3c4ccc(Cl)cc4nc4ccc(OC)cc34)c2c1 | 4 µM | 0.33 µM | 0.41 µM | < 0.02 µM | 0.77 µM | 10 mg/kg | 80% | – |
| COc1ccc2nc3cc(Cl)ccc3c(NCCCN(CCCNc3c4ccc(Cl)cc4nc4ccc(OC)cc34)Cc3ccoc3)c2c1 | 2 µM | 0.36 µM | 0.46 µM | 0.01 µM | 0.69 µM | 10 mg/kg | 24% | – |
| COc1ccc2nc3cc(Cl)ccc3c(NCCCN(CCCNc3c4ccc(Cl)cc4nc4ccc(OC)cc34)Cc3ccccn3)c2c1 | 2 µM | 3.97 µM | 0.01 µM | < 0.01 µM | 0.72 µM | 10 mg/kg | 0% | – |
